In paper PMC8689007, “In Silico Prediction and Bioactivity Evaluation of Chemical Ingredients Against Influenza A Virus From Isatis tinctoria L” (Frontiers in Pharmacology, 2021):
In brackets after ≈: the same amount, converted by molar mass. Several values for one entry are separate records, joined by “and”; a condition that tells them apart may be missing. Equal values may be shown once. Read-outs that look alike come from different tables or passages of the source.

Columns and labels:
[1] = tested on: A/HebeiXinhua/SWL1106/2017 (oseltamivir- and amantadine-resistant H1N1); assay: microbe, parasite or virus in culture; details: Influenza A virus, H1N1, MDCK
[2] = tested on: A/HebeiXinhua/SWL1106/2017 (oseltamivir- and amantadine-resistant H1N1)
[3] = tested on: A/PR/8/34 (H1N1)

Compound | IC50 [1] [µg/mL] | IC50 [2] | SI, selection index (TC50/IC50) [3]
NC12CC3CC(CC(C3)C1)C2 [Amantadine] | > 100 | – | –
COc1ccc(-c2cc(=O)c3c(O)c(OC)c(OC)cc3o2)cc1O [Eupatorin] | 71.8 ± 6.58 (≈ 209 µM) | 87.17 ± 5.23 µg/mL and 69.16 ± 2.12 µg/mL and 89.29 ± 5.22 µg/mL | –
COc1c(O)cc2oc(-c3ccc(O)cc3)cc(=O)c2c1O [Dinatin] | – | – | >2.66
CCOC(=O)C1=C[C@@H](OC(CC)CC)[C@H](NC(C)=O)[C@@H](N)C1 [Oseltamivir] | > 100 | – | –
